Series [1] relates to ICR mice. In words: Toxicity after intraperitoneal administration to ICR mice. The conditions noted are these: 100 mg/kg. Type of series: in vivo.
Series [2] concerns Cryptococcus neoformans TIMM0354. Kind of series: Antimicrobial spectrum, liquid medium dilution method. Type of series: cell-based. The protocol:
(§1) The TKR459 obtained was used to determine antimicrobial spectra against various microorganisms. The minimal inhibitory concentration (μg/ml) was measured by the liquid medium dilution method as the minimal concentration causing a substantially complete inhibition of micobial growth. The sub-minimal inhibitory concentration (μg/ml) was determined as the minimal concentration causing a partial inhibition of micobial growth and shown in the parentheses of Table 2. In the table, YNBG stands for a medium comprising 0.67% of yeast nitrogen base (manufactured by Difco) and 1.0% of glucose.

The test system of series [3] is Candida kefyr TIMM0301. The series is described as above. The conditions noted are these: for MIC: Kluyveromyces marxianus, Candida kefyr TIMM0301, YNBG medium. It counts as cell-based. The protocol:
as §1

Series [4] has as its system Candida albicans TIMM0136. Described as above. It counts as cell-based. Here is the method: as §1
Series [5] in a line: Solubility in solvents. Type of series: physicochemical.

The values that follow come from patent US6337410B2, “Antibiotic TKR459, production method, and microorganism” (Takara Shuzo Co., Ltd., priority 1996, dated 2002).

Structures are written as SMILES. Converted amounts (≈) assume the structure as drawn. Read-outs that look alike come from different tables or passages of the source.

Consider `CC(O)(CCCCCCCCCCCCCC1OC(O)C(N)C(O)C1O)CCC(=O)O` (stereo not drawn) [TKR459], for which the Toxic signs result in series [1] is reported as “no toxic signs”. The MIC in series [2] (Cryptococcus neoformans TIMM0354, YNBG medium, substantially complete inhibition of growth, read-out: Minimal inhibitory concentration) is 3.13 mg/L (≈ 6.99 µM); in series [3] (minimal concentration causing partial inhibition of growth, read-out: Sub-minimal inhibitory concentration (in parentheses)), 0.39 mg/L (≈ 0.871 µM); in series [3] (substantially complete inhibition of growth, read-out: Minimal inhibitory concentration) it was 0.78 mg/L (≈ 1.74 µM); in series [4] (Candida albicans TIMM0136, YNBG medium, substantially complete inhibition of growth, read-out: Minimal inhibitory concentration) it was 0.78 mg/L (≈ 1.74 µM). For the same compound, the Antifungal activity result in series [2] (Cryptococcus neoformans, summary of Table 2) is “active”; in series [3] (Candida kefyr, summary of Table 2) it was “active”; in series [4] (Candida albicans, summary of Table 2), “active”. Besides, the Solubility in chloroform entry in series [5] (chloroform) is on record as “sparingly soluble”. In addition, the Solubility in hexane result in series [5] (hexane) is given as “sparingly soluble”. Also, the Solubility in methanol entry in series [5] (methanol) is recorded as “soluble”. Moreover, the Solubility in water entry in series [5] (water) was “soluble”.
